Results from patent EP0565593B1, “REDUCING PESTICIDAL INTERACTIONS IN CROPS” (priority 1990, dated 1992).
Where “and” joins values, the source holds several entries; their conditions need not be identical. Equal entries are not always repeated. Where two headings read alike, the source gives them in different places.

Columns and labels:
Velvetleaf (VELE) = format: in vivo, Abutilon theophrasti
Shattercane (SHCA) = format: in vivo
Giant foxtail (GIFT) = experiment: whole plant or invertebrate; format: in vivo; conditions: in vivo
[1] = Antidote 8.96 + Biocide No. 1 8.96 Kg/Ha PPI, Herb. No. 8 0.07, 5 DAP, before herbicide application
[2] = Antidote 8.96 + Biocide No. 1 8.96 Kg/Ha PPI, Herb. No. 8 0.07 POE, 13 DAP
[3] = Antidote 8.96 + Biocide No. 1 8.96 Kg/Ha PPI, Herbicide No. 7 0.28 POE, 13 days after planting
[4] = Herb. […], 5 DAP, before herbicide application
[5] = Table 14: Herbicide No. 7 (ACCENT) 0.84 Kg/Ha POE + Biocide No. 2 8.96 Kg/Ha PPI + antidote 8.96 Kg/Ha PPI, 13 days after planting, 8 days after herbicide
[6] = […], 13 days after planting, 8 days after herbicide
[7] = […], observed 10 days after herbicide application
[8] = Herb. […], 13 DAP, after herbicide application
[9] = Antidote 4.48 + Biocide No. 1 8.96 Kg/Ha PPI, Herb. No. 8 0.07, 5 DAP, before herbicide application
[10] = Antidote 4.48 + Biocide No. 1 8.96 Kg/Ha PPI, Herb. No. 8 0.07 POE, 13 DAP
[11] = Antidote 4.48 + Biocide No. 1 8.96 Kg/Ha PPI, Herbicide No. 7 0.28 POE, 13 days after planting
[12] = Table 14: Herbicide No. 7 (ACCENT) 0.84 Kg/Ha POE + Biocide No. 2 8.96 Kg/Ha PPI + antidote 4.48 Kg/Ha PPI, 13 days after planting, 8 days after herbicide

## CC(N=C1SCC(=C(Cl)Cl)S1)c1ccccc1 (stereo not shown) [compound 4]
Velvetleaf (VELE); [1]
  % Inhibition 5 DAP VELE: 0%
Velvetleaf (VELE); [2]
  % Inhibition 13 DAP VELE: 90%
Velvetleaf (VELE); [3]
  % Inhibition VELE: 70%
Velvetleaf (VELE); [4]
  % Inhibition 5 DAP VELE: 0%
Velvetleaf (VELE); [5]
  % Inhibition VELE: 65%
Velvetleaf (VELE); [6]
  % Inhibition VELE: 70%
Velvetleaf (VELE); [7]
  % Inhibition VELE: 80%
Velvetleaf (VELE); in vivo
  % Inhibition 5 DAP VELE: 0%
  % Inhibition 13 DAP VELE: 90%
Shattercane (SHCA); [1]
  % Inhibition 5 DAP SHCA: 10%
Shattercane (SHCA); [2]
  % Inhibition 13 DAP SHCA: 85%
Shattercane (SHCA); [3]
  % Inhibition SHCA: 75%
Shattercane (SHCA); [4]
  % Inhibition 5 DAP SHCA: 0%
Shattercane (SHCA); [8]
  % Inhibition 13 DAP SHCA: 90%
Shattercane (SHCA); [5]
  % Inhibition SHCA: 70%
Shattercane (SHCA); [6]
  % Inhibition SHCA: 90%
Shattercane (SHCA); [7]
  % Inhibition SHCA: 65%
Shattercane (SHCA); in vivo
  % Inhibition 5 DAP SHCA: 30%
  % Inhibition 13 DAP SHCA: 65%
  % Inhibition SHCA: 70% and 55% and 60% and 45%
Corn; [1]
  % Inhibition 5 DAP Corn: 10%
Corn; [2]
  % Inhibition 13 DAP Corn: 60%
Corn; [3]
  % Inhibition Corn: 50%
Corn; [4]
  % Inhibition 5 DAP Corn: 0%
Corn; [5]
  % Inhibition Corn: 15%
Corn; [6]
  % Inhibition Corn: 25%
Corn; [7]
  % Inhibition Corn: 65%
Corn; in vivo
  % Inhibition 5 DAP Corn: 15%
  % Inhibition 13 DAP Corn: 30%
Giant foxtail (GIFT)
  % Inhibition GIFT: 50% and 65% and 60% and 90% and 55%

## C=CCSC(=S)N(C)c1ccccc1 [compound 29]
Velvetleaf (VELE); [9]
  % Inhibition 5 DAP VELE: 0%
Velvetleaf (VELE); [10]
  % Inhibition 13 DAP VELE: 95%
Velvetleaf (VELE); [11]
  % Inhibition VELE: 70%
Velvetleaf (VELE); [4]
  % Inhibition 5 DAP VELE: 0%
Velvetleaf (VELE); [12]
  % Inhibition VELE: 70%
Velvetleaf (VELE); [6]
  % Inhibition VELE: 65%
Velvetleaf (VELE); [7]
  % Inhibition VELE: 75%
Velvetleaf (VELE); in vivo
  % Inhibition 5 DAP VELE: 20%
  % Inhibition 13 DAP VELE: 95%
Shattercane (SHCA); [9]
  % Inhibition 5 DAP SHCA: 40%
Shattercane (SHCA); [10]
  % Inhibition 13 DAP SHCA: 80%
Shattercane (SHCA); [11]
  % Inhibition SHCA: 70%
Shattercane (SHCA); [4]
  % Inhibition 5 DAP SHCA: 10%
Shattercane (SHCA); [12]
  % Inhibition SHCA: 80%
Shattercane (SHCA); [6]
  % Inhibition SHCA: 85%
Shattercane (SHCA); [7]
  % Inhibition SHCA: 60%
Shattercane (SHCA); in vivo
  % Inhibition 5 DAP SHCA: 40%
  % Inhibition 13 DAP SHCA: 85%
  % Inhibition SHCA: 80% and 75% and 65% and 45%
Corn; [9]
  % Inhibition 5 DAP Corn: 0%
Corn; [10]
  % Inhibition 13 DAP Corn: 65%
Corn; [11]
  % Inhibition Corn: 60%
Corn; [4]
  % Inhibition 5 DAP Corn: 0%
Corn; [12]
  % Inhibition Corn: 35%
Corn; [6]
  % Inhibition Corn: 35%
Corn; [7]
  % Inhibition Corn: 75%
Corn; in vivo
  % Inhibition 5 DAP Corn: 35%
  % Inhibition 13 DAP Corn: 65%
Giant foxtail (GIFT)
  % Inhibition GIFT: 55% and 75% and 65% and 95%

## C=CCN(CC=C)C(=O)C(Cl)Cl [compound 2]
Velvetleaf (VELE); [9]
  % Inhibition 5 DAP VELE: 0%
Velvetleaf (VELE); [10]
  % Inhibition 13 DAP VELE: 95%
Velvetleaf (VELE); [11]
  % Inhibition VELE: 65%
Velvetleaf (VELE); [4]
  % Inhibition 5 DAP VELE: 0%
Velvetleaf (VELE); [12]
  % Inhibition VELE: 70%
Velvetleaf (VELE); [6]
  % Inhibition VELE: 60%
Velvetleaf (VELE); [7]
  % Inhibition VELE: 80%
Velvetleaf (VELE); in vivo
  % Inhibition 5 DAP VELE: 0%
  % Inhibition 13 DAP VELE: 85%
Shattercane (SHCA); [9]
  % Inhibition 5 DAP SHCA: 0%
Shattercane (SHCA); [10]
  % Inhibition 13 DAP SHCA: 85%
Shattercane (SHCA); [11]
  % Inhibition SHCA: 75%
Shattercane (SHCA); [4]
  % Inhibition 5 DAP SHCA: 0%
Shattercane (SHCA); [12]
  % Inhibition SHCA: 75%
Shattercane (SHCA); [6]
  % Inhibition SHCA: 90%
Shattercane (SHCA); [7]
  % Inhibition SHCA: 65%
Shattercane (SHCA); in vivo
  % Inhibition 5 DAP SHCA: 20%
  % Inhibition 13 DAP SHCA: 85%
Corn; [9]
  % Inhibition 5 DAP Corn: 10%
Corn; [10]
  % Inhibition 13 DAP Corn: 50%
Corn; [11]
  % Inhibition Corn: 30%
Corn; [4]
  % Inhibition 5 DAP Corn: 0%
Corn; [12]
  % Inhibition Corn: 20%
Corn; [6]
  % Inhibition Corn: 15%
Corn; [7]
  % Inhibition Corn: 60%
Corn; in vivo
  % Inhibition 5 DAP Corn: 20%
  % Inhibition 13 DAP Corn: 45%
Giant foxtail (GIFT)
  % Inhibition GIFT: 50% and 55% and 80% and 60% and 70% and 90%

## Clc1cc(Cl)nc(-c2ccccc2)n1 [compound 31]
Velvetleaf (VELE); [9]
  % Inhibition 5 DAP VELE: 0%
Velvetleaf (VELE); [10]
  % Inhibition 13 DAP VELE: 85%
Velvetleaf (VELE); [11]
  % Inhibition VELE: 65%
Velvetleaf (VELE); [4]
  % Inhibition 5 DAP VELE: 0%
Velvetleaf (VELE); [8]
  % Inhibition 13 DAP VELE: 95%
Velvetleaf (VELE); [12]
  % Inhibition VELE: 65%
Velvetleaf (VELE); [6]
  % Inhibition VELE: 65%
Velvetleaf (VELE); [7]
  % Inhibition VELE: 80%
Velvetleaf (VELE); in vivo
  % Inhibition 5 DAP VELE: 0%
  % Inhibition 13 DAP VELE: 85%
Shattercane (SHCA); [9]
  % Inhibition 5 DAP SHCA: 0%
Shattercane (SHCA); [10]
  % Inhibition 13 DAP SHCA: 80%
Shattercane (SHCA); [11]
  % Inhibition SHCA: 75%
Shattercane (SHCA); [4]
  % Inhibition 5 DAP SHCA: 0%
Shattercane (SHCA); [12]
  % Inhibition SHCA: 75%
Shattercane (SHCA); [6]
  % Inhibition SHCA: 85%
Shattercane (SHCA); [7]
  % Inhibition SHCA: 65%
Shattercane (SHCA); in vivo
  % Inhibition 5 DAP SHCA: 20%
  % Inhibition 13 DAP SHCA: 80%
  % Inhibition SHCA: 85% and 50% and 60% and 45%
Corn; [9]
  % Inhibition 5 DAP Corn: 10%
Corn; [10]
  % Inhibition 13 DAP Corn: 75%
Corn; [11]
  % Inhibition Corn: 65%
Corn; [4]
  % Inhibition 5 DAP Corn: 0%
Corn; [12]
  % Inhibition Corn: 45%
Corn; [6]
  % Inhibition Corn: 30%
Corn; [7]
  % Inhibition Corn: 70%
Corn; in vivo
  % Inhibition 5 DAP Corn: 15%
  % Inhibition 13 DAP Corn: 65%
Corn; primisulfuron POE + biocides PPI, Tables 8-10
  activity in reducing corn injury: either inactive or weakly active
Giant foxtail (GIFT)
  % Inhibition GIFT: 55% and 80% and 85% and 75% and 95% and 60%
